Several values for one entry are separate records, joined by “and”; a condition that tells them apart may be missing. Equal entries are not always repeated. Entries after “also recorded” stand apart in the source; their conditions may differ. Where two headings read alike, the source gives them in different places. No end group written: not given here.
What was measured:
C. albicans AzS = test: C. elegans killing assay, C. albicans paired clinical isolate before fluconazole resistance (Az^S); format: in vivo, Candida albicans
C. albicans AzR = format: in vivo, Candida albicans; conditions: C. albicans AzR infected C. elegans, peptides 1 nM, fluconazole 4 ug/ml, Fig 4D
C. albicans [1] = test: C. elegans killing assay, C. albicans infection; conditions: 1 nM peptide; for Median survival: C. albicans infected C. elegans
Method: C. elegans glp-4(bn2); sek-1(km-4)[48] nematodes were propagated and maintained on E. coli strain OP50[50] that was seeded onto nematode growth medium (NGM) agar using standard techniques (Hope, 1999). To synchronize the animals, L1 stage worms on non-starved plates were washed off, filtered through a 10 μm filter (pluriSelect, pluriStrainer 10 μm), harvested by centrifugation at 750 xg for 30 seconds, transferred to OP50 seeded plates, and grown to the L4 stage. To prepare the infection plates, Fungal strains were grown in YPD broth for 24 h at 37 °C with agitation. 500 μl of the culture was plated onto BHI solid medium containing gentamycin (10 μg/ml) and grown for 24 h at 37 °C. The synchronized, L4 C. elegans were washed off the OP50 plates in 2 ml sterile M9 buffer and washed once, centrifuging at 750 xg for 30 seconds to collect animals. Animals were infected by placing them on the fungal lawn for 4 h at 25 °C. Following this exposure, they were washed off the plate and washed four times with 2 ml of sterile M9. The nematodes were then pipetted (~30 per well with two wells per condition for a total of ~60 worms assayed) into six-well plates with 2 ml of liquid medium (20% BHI broth and 80% M9) containing the indicated concentrations of test compounds. Plates were incubated at 25 °C, and worm death was scored daily. Kaplan–Meier survival curves were generated and analyzed as described in the quantification and statistical analysis section.

[2] = Solubility of peptides (biophysical characteristics); format: physicochemical
Source text: Supplement 41467_2022_33613_MOESM1_ESM.docx, table 2: Supplementary Table 2. Biophysical characteristics of peptides. | column: Solubility

RBCs = test: Hemolysis assay; format: cell-based, human; conditions: for fractional hemolysis (Toxicity): Extended Fig 6A
Method: De-identified and pooled RBCs were purchased from Rockland Immunochemicals, Inc. RBCs were prepared at 6 × 10^7 cells/mL in PBS. To 25 μL of peptide diluted appropriately to result in a final concentration of 1 nM and 1 µM, 125 μL of RBC suspension was added. The plates were gently rocked for 1 h at room temperature. The cells were then removed from suspension by centrifugation at 1000 xg for 5 min. From the experimental plate, 100 μL of the supernatant was carefully withdrawn from each well and added to a new 96-well plate. The absorbance of the solutions in each well was measured at 410 nm and each well was compared to a no-treatment control and a 100% lysis control (1% SDS).

C. albicans [3] = test: Rat venous catheter model; format: in vivo; conditions: rat jugular vein catheter, 20 nM, 24 h, n of three
Method: To quantitate fungal burden after 24 h, the catheter was removed, and 1 cm of the tip placed in a one milliliter of sterile 0.9% NaCl followed by vortexing. A 1:10 serial dilution of this wash fluid was plated on SDA and colonies counted after 24 h of growth at 35 °C. […] Serial ethanol washes and critical point drying were used to dry the segments before they were mounted, and palladium-gold coated.

C. albicans [4] = test: C. albicans adhesion assay (polystyrene plates, crystal violet); format: cell-based, Candida albicans; conditions: for Adjusted avg / Avg Percent: Fig 3B, 10 nM, mean of 6 technical replicates; for Adjusted avg: background subtracted; for Avg Percent: relative adherence vs DMSO
Method: Similar to the methodology in[51], C. albicans strains were grown in YPD broth for 18 h at 30 °C with agitation and then subcultured for 4 h in the same conditions. […] The cell suspension was incubated for 1 h at 30 °C with agitation. Then 100 µl of the cell suspension was added to wells of a 96 well tissue culture treated polystyrene plate (Falcon) in addition to 100 µl of artificial saliva media[14],[52] containing the indicated concentrations of test compounds. The plate was then incubated at 37 °C for 90 min.
The adhered cell layer was then stained for 20 min with 40 µl of 0.08% crystal violet solution (diluted, Sigma). The crystal violet stain was removed, and the wells were then washed three times with sterile water. Adhered cells were then destained with 200 µl of 200 proof ethanol for 20 min, and 100 µl of the ethanol solution was transferred to a new well for analysis. The optical density at 595 nm (OD595) was measured using a Synergy H1 plate reader (BioTek) with Gen5 version 3.08 software (BioTek).

C. albicans [5] = test: Mouse OPC model, epithelial (hyphal) invasion by histology; format: in vivo
C. albicans [6] = test: C. albicans CFUs before and after two-hour pre-incubation with peptide; conditions: 100 nM, two-hour incubation in PBS
Method: To increase the chances of observing an effect, we pre-incubated C. albicans with 100 nM of EntV or the 12mer for two hours prior to intravenous (IV) injection of 1 ×10^5 CFU.
The disseminated candidiasis model[59],[60] was performed by growing C. albicans SC5314 overnight in YPD at 30 °C, then diluting 1/100 and growing in a second overnight. The late-log phase culture was collected by centrifugation at 16,000 xg for 30 s, washed in PBS, and diluted to 5 × 10^6 cells/ml in PBS containing vehicle (0.01% DMSO) or 100 nM EntV or the 12mer peptide and incubated for 2 h at room temperature. Female ICR mice 6 wks, 18–20 g, 10/experimental group were inoculated via the lateral tail vein with 0.1 ml. Animals were monitored at least twice daily for 21 days for signs of moribundity.

[7] = Peptide serum stability assay; format: in vitro ADME, human
Method: One mL of RPMI supplemented with 10% (v/v) of human serum (type AB) were aliquoted and temperature-equilibrated at 37 °C for 15 min before adding a concentrated stock peptide solution resulting in a final peptide concentration of 100 µM. For each time point, 100 µL of the reaction solution was removed and added to 200 µL 96% ethanol for precipitation of serum proteins. The sample was cooled (4 °C) for 15 min and then spun at 18,000 g for 2 min to pellet the precipitated serum proteins. The reaction supernatant was analyzed using HPLC with absorbance detected at 280 nm. The peptide peak was detected first without serum treatment to assess the area under the curve for the peptide of interest. At each time point the area under the curve was calculated by HPLC and then divided by the untreated peptide area under the curve to determine the percent remaining.

[8] = tested on: C. neoformans strain 40-71; test: C. elegans killing assay, C. neoformans infection; format: in vivo, Cryptococcus neoformans; conditions: 1 nM peptide
C. albicans [9] = test: Mouse OPC model, fungal burden in tongue by qPCR; format: in vivo
C. albicans [10] = test: Intravenous infection model (disseminated candidiasis); format: in vivo, mouse; conditions: C. albicans pre-incubated with 100 nM peptide for two hours, IV injection, day 22
[11] = 10 nM and 1 nM in drinking water

Compound: OC(Cn1cncn1)(Cn1cncn1)c1ccc(F)cc1F [Flu, fluconazole, reference compound]
- Median survival (C. albicans AzS; in vivo): 11 days and 10 days
- Median survival (C. albicans AzR; trial 1): 8 days
- Median survival (C. albicans AzR; trial 2): 6 days

Compound: TNAAAAQQGGIICLLVVWLS [α7-disrupted]
- Median survival (C. albicans [1]; Fig 2C, trial 1): 6 days
- Median survival (C. albicans [1]; Fig 2C, trial 2): 6 days
- Solubility [2]: 10 µM +

Compound: TNVGALWICGLAVIQAAQLS [α7-random]
- Median survival (C. albicans [1]; Fig 2C, trial 1): 7 days
- Median survival (C. albicans [1]; Fig 2C, trial 2): 7 days
- Solubility [2]: 10 µM +

Compound: VAGQLALWAVQC [12aa]
- Lysis of red blood cells (in words) (RBCs; 1 nM and 1 µM peptide, 6 x 10^7 RBC cells/mL in PBS, 1 h room temperature, absorbance 410 nm, n of 6, listed as 12mer): no lysis of red blood cells; also recorded: no toxicity
- fractional hemolysis (Toxicity) (RBCs; 1nM, replicate 1): 0.01086
- fractional hemolysis (Toxicity) (RBCs; 1nM, replicate 2): 0.03086
- fractional hemolysis (Toxicity) (RBCs; 1nM, replicate 3): 0.01386
- fractional hemolysis (Toxicity) (RBCs; 1nM, replicate 4): 0.05786
- fractional hemolysis (Toxicity) (RBCs; 1uM, replicate 1): 0.04886
- fractional hemolysis (Toxicity) (RBCs; 1uM, replicate 2): 0.05786
- fractional hemolysis (Toxicity) (RBCs; 1uM, replicate 3): 0.03286
- fractional hemolysis (Toxicity) (RBCs; 1uM, replicate 4): 0.08286
- Reduction of catheter fungal burden (C. albicans [3]): 1.5 logs
- Inhibition of C. albicans adhesion to polystyrene (in words) (C. albicans [4]; 1 h with peptide in PBS, then artificial saliva media 90 min, crystal violet): as effective in protecting against C. albicans infection in the worm model and inhibiting surface adhesion as full-length EntV
- Adjusted avg (C. albicans [4]; biological replicate 1): 0.262
- Avg Percent (C. albicans [4]; biological replicate 1): 40.07%
- Adjusted avg (C. albicans [4]; biological replicate 2): 0.408
- Avg Percent (C. albicans [4]; biological replicate 2): 48.28%
- Adjusted avg (C. albicans [4]; biological replicate 3): 0.161
- Avg Percent (C. albicans [4]; biological replicate 3): 13.25%
- Adjusted avg (C. albicans [4]; biological replicate 4): 0.232
- Avg Percent (C. albicans [4]; biological replicate 4): 27.81%
- Protection of C. elegans against C. albicans infection (in words) (C. albicans [1]): as effective in protecting against C. albicans infection in the worm model and inhibiting surface adhesion as full-length EntV
- Median survival (C. albicans [1]; Fig 3A, trial 1): 10.5 days
- Median survival (C. albicans [1]; Fig 3A, trial 2): 10 days
- Median survival (C. albicans [1]; Fig 3A, trial 3): 9.5 days
- Median survival (C. albicans [1]; Fig 3E, trial 1): 11 days
- Median survival (C. albicans [1]; Fig 3E, trial 2): 10 days
- Median survival (C. albicans [1]; Fig 3E, trial 3): 10 days
- Invasion of the tongue epithelium (in words) (C. albicans [5]; [11]): the reduction in invasion remained dramatic
- Hyphal invasion of the tongue (in words) (C. albicans [5]; 50 nM in drinking water, day 5): significant lowering of hyphal invasion
- Hyphal invasion relative to fluconazole (in words) (C. albicans [5]; 100 nM and 500 nM in drinking water versus 4 µg/mL fluconazole, day 5): slightly less prevalent
- Epithelial / hyphal invasion of the tongue (in words) (C. albicans [5]; mouse, in vivo, listed as 12mer): at least as effective as the full length EntV; also recorded: most reduced
- Median survival (C. albicans AzS; C. albicans AzS infected C. elegans, peptides 1 nM, fluconazole 4 ug/ml, Fig 4C, trial 1): 12 days
- Median survival (C. albicans AzS; C. albicans AzS infected C. elegans, peptides 1 nM, fluconazole 4 ug/ml, Fig 4C, trial 2): 10.5 days
- C. albicans CFUs before versus after incubation with peptide (in words) (C. albicans [6]): no significant difference
- stability in the presence of 10% human serum ([7]; 10% human serum, 0 Hrs, fraction relative to 0 Hrs, mean (SD) of n = 3): 1.0 (0.0)
- remaining at 2 h ([7]; 10% human serum, 2 Hrs, fraction relative to 0 Hrs, mean (SD) of n = 3, read-out: stability in the presence of 10% human serum): 44.3%
- remaining at 4 h ([7]; 10% human serum, 4 Hrs, fraction relative to 0 Hrs, mean (SD) of n = 3, read-out: stability in the presence of 10% human serum): 39.3%
- remaining at 24 h ([7]; 10% human serum, 24 Hrs, fraction relative to 0 Hrs, mean (SD) of n = 3, read-out: stability in the presence of 10% human serum): 12.4%
- Peptide detectable (percent remaining) in serum ([7]; RPMI with 10% (v/v) human serum (type AB), 37 °C, 100 µM peptide, 24-hour incubation, HPLC 280 nm, mean of n of 3): about 10%
- Stability in serum (in words) ([7]; RPMI with 10% (v/v) human serum (type AB), 37 °C, 100 µM peptide, HPLC 280 nm, n of 3): not particularly stable in serum
- Median survival (C. albicans AzR; trial 1): 10 days
- Median survival (C. albicans AzR; trial 2): 11 days
- Protection of C. elegans infected with C. neoformans (in words) [8]: protected C. neoformans infected worms from killing
- Fungal burden on the tongue (in words) (C. albicans [9]; [11]): only a slight reduction in fungal burden on the tongue
- Fungal burden in the tongue (in words) (C. albicans [9]; 50 nM in drinking water, day 5): loss of efficacy in terms of fungal burden
- Fungal burden in the tongue, established infection (in words) (C. albicans [9]; 100 nM in drinking water starting at day three, sacrificed on day five): significantly less fungal burden compared to both groups of untreated animals
- Fungal burden in the tongue, C. albicans DNA by qPCR (in words) (C. albicans [9]; corticosteroid-suppressed mice, 100 nM in drinking water from inoculation, day 5, listed as 12mer): equally effective; also recorded: even more effective at reducing fungal burden than 4 µg/mL fluconazole
- Solubility ([2]; Supplementary Table 2, printed as '10 µM +'): 10 µM +
- Survival of mice at end of experiment (in words) (C. albicans [10]): about half the animals were still alive
